# Measurements: US20210186925A1, “Applications Of YD1701 In Preparation Of Drugs For Treating ALDH1A3 High-Expression Tumors” (First Affiliated Hospital Third Military Medical University …, priority 2017, published 2021)
# Test system: orthotopic CRC transplanted tumors
# Assay: orthotopic CRC transplanted tumors in mice
# Assay type: in vivo
# Settings: YD1701 1 mg·kg^−1, 5-FU 10 mg·kg^−1, intraperitoneal, two weeks; three groups compared; FIG. 20
# Method: To further assess the therapeutic potential of the YD1701, the inhibiting effects of the YD1701 and 5-FU(5-fluorouracil) on orthotopic CRC transplanted tumors in the mice are compared, and the experimental process is shown in FIG. 17. On the 20th day after the colons of mice of YD1701 are implanted with tumor micro-tissue blocks orthotopically, and the formation of the orthotopic transplanted tumors is determined by an in-vivo imaging system. […] Then, the determined mice with the orthotopic transplanted tumors are divided into three groups and subjected to intraperitoneal injection of YD1701 (1 mg·kg^−1), normal saline+DMSO and 5-FU (10 mg·kg^−1) for treatment for two weeks. The total survival time of the three groups of mice with the orthotopic transplanted tumors is compared.
structure (smiles),measurement,value
"O=c1[nH]cc(F)c(=O)[nH]1 [5-FU, 5-fluorouracil]",volume sizes of the tumors in situ in the colons,no obvious difference
